Laboratory results reported in patent US20020142033A1, “Method for treating incontinence” (priority 1998, published 2002).

Conditions: human, in vivo

Structure (SMILES): CCNCC#CCOC(=O)C(O)(c1ccccc1)C1CCCCC1 (stereo not shown) [desethyloxybutynin]
- t½ of DESOXY compared to OXY: shorter t½ life compared to OXY
